Where two headings read alike, the source gives them in different places.
Tests used:
HCT15 cells = test: cells; format: cell-based, human; conditions: HCT15 cells
Procedure, shortened: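 Five-day exposure of 1000 HCT15 cells/well to threefold payload dilutions, run both plus and minus verapamil (5 ug/mL) in RPMI with 10% FBS. ATP luminescence (CellTiter-Glo) gives viability; four-parameter logistic fit of 10 points yields IC50, and 100 − % viable at highest dose gives % kill.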

H69AR cells = test: Cytotoxicity in panel of MDR cell lines, H69AR (72 h and 144 h); format: cell-based, human; conditions: for IC50: Homo sapiens
Procedure, shortened: (§1)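 Cells were seeded at 1000 per well and grown overnight, then exposed to 1:3 serially diluted payloads for 72 h and 144 h. CellTiter-Glo reagent was added for 10 min at room temperature, and luminescence was read. IC50 values came from a four-parameter logistic fit.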

C4-2 cells [1] = test: Cell-based killing assay of payloads (CellTiter-Glo), C4-2 cells; set-up: species or system human; conditions: 5-day incubation
Procedure, shortened: (§2)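 Viability readout is CellTiter-Glo luminescence after a 5-day exposure to 10-point, threefold-diluted payloads spanning 100 nM–[…], following overnight attachment of 4000 cells/well. Four-parameter logistic fit gives IC50 in M; % kill taken at highest concentration tested.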

T47D cells = test: Cell-based killing assay of payloads (CellTiter-Glo), T47D cells; set-up: species or system human; conditions: 5-day incubation
Procedure, shortened: as §2

C4-2 cells [2] = test: Cytotoxicity of anti-STEAP2 ADCs, payloads and reference compounds in C4-2 cells; format: cell-based, human
Procedure: (§3) To test the ability of the disclosed tubulysin payloads to kill human cell lines, an in vitro cytotoxicity assay was performed. In vitro cytotoxicity of the disclosed payloads, as well as reference compounds, were evaluated using the CellTiter-Glo Assay Kit (Promega, Cat #G7573), in which the quantity of ATP present is used to determine the number of viable cells in culture. For the assay, C4-2, HEK293, or T47D cells were seeded at 4000 cells/well on Nunclon white 96-well plates in complete growth medium (DME high glucose:Ham's F12 at 4:1, 10% FBS, 100 units/ml Penicillin, 100 ug/ml streptomycin, 53 ug/ml glutatmine, 10 ug/ml insulin, 220 ng/ml biotin, 12.5 pg/ml T3, 12.5 ug/ml Adenine, 4 ug/ml transferrin for C42 cells; DME high glucose, 10% FBS, 100 units/ml Penicillin, 100 ug/ml streptomycin, 53 ug/ml glutatmine for HEK293; RPMI, 10% FBS, 100 units/ml Penicillin, 100 ug/ml streptomycin, 53 ug/ml glutatmine, 10 ug/ml insulin, 10 mM HEPEs, 200 nM Sodium Pyruvate for T47D cells) and grown overnight at 37° C. in 5% CO2. For cell viability curves, 1:3 serially diluted payloads were added to the cells at final concentrations ranging from 100 nM to […], including a no treatment control group, and were then incubated for 5 days. After the 5-day incubation, cells were incubated at room temperature with 100 μL of CellTiter-Glo reagents for 10 minutes. Relative luminescence units (RLU) were determined on a Victor plate reader (PerkinElmer). The IC50 values were determined from a four-parameter logistic equation over a 10-point response curve (GraphPad Prism). All IC50 values are expressed in molar (M) concentration. The percent cell killing (% kill) at the maximum concentration tested was estimated from the following formula (100−% viable cells). Averages±standard deviation (SD) are included where replicate experiments were performed.
To further test the ability of the disclosed tubulysin payloads, reference compounds, and antibody drug conjugates using these payloads, a cytotoxicity assay was performed using C4-2 cells as described in this example (see above). For these studies, anti-STEAP2 antibodies were conjugated to select tubulysins payloads, and the compounds were tested at concentrations starting at 100 nM with 3-fold serial dilution. All IC50 values are expressed in nM concentration and the percent cell killing at the maximum concentration tested was estimated from the following formula (100−% viable cells).

HEK293 cells = test: Cell-based killing assay of payloads (CellTiter-Glo), HEK293 cells; set-up: species or system human; conditions: 5-day incubation
Procedure, shortened: as §2

HCT-15 cells = test: Cytotoxicity in panel of MDR cell lines, HCT-15 (72 h and 144 h); format: cell-based, human; conditions: for IC50: Homo sapiens
Procedure, shortened: as §1

HL60/MX2 cells = test: Cytotoxicity in panel of MDR cell lines, HL60/MX2 (72 h and 144 h); format: cell-based, human; conditions: for IC50: Homo sapiens
Procedure, shortened: as §1

MES-SA/MX2 cells = test: Cytotoxicity in panel of MDR cell lines, MES-SA/MX2 (72 h and 144 h); format: cell-based, human; conditions: for IC50: Homo sapiens
Procedure, shortened: as §1

HCT15/PRLR cells = test: Cytotoxicity of anti-PRLR tubulysin ADCs and payloads in HCT15/PRLR cells with or without Verapamil; format: cell-based, human; conditions: for IC50: Homo sapiens, HCT-15
Procedure: as §3
Bioassays were developed to assess the efficacy of an anti-PRLR antibody conjugated with the disclosed tubulysin payloads and reference payloads. It was developed to assess the activity of tubulysin payloads after internalization of an anti-PRLR-tubulysin ADC into cells, release of the payload, and subsequent cytotoxicity. For this assay, a HCT15 line was engineered to express human full length PRLR (accession #NP_000940.1). The resulting stable cell line is referred to herein as HCT15/PRLR. In vitro cytotoxicity of the disclosed payloads, reference compounds, and tested ADCs were evaluated similarly as described in this example using HCT15/PRLR cells with or without […] of Verapamil diluted in normal culture medium. The compounds were tested at concentrations starting at 100 nM with 3-fold serial dilution. All IC50 values are expressed in nM concentration and the percent cell killing (% kill) at the maximum concentration tested was estimated from the following formula (100−% viable cells).

[3] = at maximum concentration tested

## C#CCCCCN(C(=O)[C@@H](NC(=O)[C@H]1CCCCN1C)[C@@H](C)CC)[C@H](C[C@@H](OC(C)=O)c1nc(C(=O)N[C@@H](Cc2ccc(N)cc2)CC(C)(C)C(=O)O)cs1)C(C)C [IVd, (4S)-4-({2-[(1R,3R)-1-(Acetyloxy)-3-[(2S,3S)—N-(hex-5-yn-1-yl)-3-methyl-2-{[(2R)-1-methylpiperidin-2-yl]formamido}pentanamido]-4-methylpentyl]-1,3-thiazol-4-yl}formamido)-5-(4-aminophenyl)-2,2-dimethylpentanoic acid]
HCT15 cells; with 5 ug/mL Verapamil, maximum % cell killing
  HCT-15 + verapamil % Kill: 97.7 ± 1.8%
HCT15 cells; with 5 ug/mL Verapamil, read-out: HCT-15 + verapamil IC50
  IC50: 0.0407 nM
HCT15 cells; without Verapamil, maximum % cell killing
  HCT-15 % Kill: 98.2 ± 0.5%
HCT15 cells; Homo sapiens, HCT-15, without Verapamil, read-out: HCT-15 IC50
  IC50: 0.057 nM
H69AR cells; 72 h incubation
  H69AR % Kill 72 h: 96.9%
H69AR cells; 144 h incubation
  H69AR % Kill 144 h: 99.5%
H69AR cells; 72 h incubation, read-out: H69AR IC50 72 h
  IC50: 0.0564 nM
H69AR cells; 144 h incubation, read-out: H69AR IC50 144 h
  IC50: 0.133 nM
C4-2 cells [1]; Homo sapiens, C4-2, 120 h, average ± SD where replicates
  IC50: 0.0164 nM
C4-2 cells [1]; at maximum concentration tested (100 − % viable cells)
  C4-2 % Kill: 93.7 ± 1.8%
T47D cells; Homo sapiens, T47D, 120 h
  IC50: 0.035 nM
T47D cells; [3]
  T47D % Kill: 84.5%
C4-2 cells [2]; Homo sapiens, top concentration 100 nM, 3-fold serial dilution
  IC50: 0.022 nM
C4-2 cells [2]; [3]
  % kill: 99%
HEK293 cells; Homo sapiens, HEK293, 120 h
  IC50: 0.0572 nM
HEK293 cells; [3]
  HEK293 % Kill: 85.4%
HCT-15 cells; 72 h incubation
  HCT-15 % Kill 72 h: 97.6%
HCT-15 cells; 144 h incubation
  HCT-15 % Kill 144 h: 99.7%
HCT-15 cells; 72 h incubation, read-out: HCT-15 IC50 72 h
  IC50: 0.00888 nM
HCT-15 cells; 144 h incubation, read-out: HCT-15 IC50 144 h
  IC50: 0.0295 nM
HL60/MX2 cells; 72 h incubation
  HL60/MX2 % Kill 72 h: 98.6%
HL60/MX2 cells; 144 h incubation
  HL60/MX2 % Kill 144 h: 99.9%
HL60/MX2 cells; 72 h incubation, read-out: HL60/MX2 IC50 72 h
  IC50: < 0.015 nM
HL60/MX2 cells; 144 h incubation, read-out: HL60/MX2 IC50 144 h
  IC50: < 0.015 nM
MES-SA/MX2 cells; 72 h incubation
  MES-SA/MX2 % Kill 72 h: 99.5%
MES-SA/MX2 cells; 144 h incubation
  MES-SA/MX2 % Kill 144 h: 100%
MES-SA/MX2 cells; 72 h incubation, read-out: MES-SA/MX2 IC50 72 h
  IC50: 0.0541 nM
MES-SA/MX2 cells; 144 h incubation, read-out: MES-SA/MX2 IC50 144 h
  IC50: 0.13 nM
HCT15/PRLR cells; with Verapamil, read-out: IC50 (nM) on HCT15/PRLR w/ Verapamil
  IC50: 0.015 nM
HCT15/PRLR cells; without Verapamil, read-out: IC50 (nM) on HCT15/PRLR w/o Verapamil
  IC50: 0.037 nM
HCT15/PRLR cells; with Verapamil, at maximum concentration tested
  % kill on HCT15/PRLR w/ Verapamil: 99%
HCT15/PRLR cells; without Verapamil, at maximum concentration tested
  % kill on HCT15/PRLR w/o Verapamil: 99%
